Test results from publication PMC6744458, “A ribose-functionalized NAD^+ with unexpected high activity and selectivity for protein poly-ADP-ribosylation” (Nature Communications, 2019).

Key:
Format in all cases: biochemical
[1] = target: T1, catalytic domain of human PARP5a (Homo sapiens, UniProt O95271); test: automodification, click biotin labelling, streptavidin-HRP immunoblot; settings: […] analogue, […] MgCl2, pH […]
T1 construct: gene TNKS; catalytic domain residues 1093-1327, C-terminal His6, E. coli BL21 (DE3)
T1 sequence (O95271 1093-1327): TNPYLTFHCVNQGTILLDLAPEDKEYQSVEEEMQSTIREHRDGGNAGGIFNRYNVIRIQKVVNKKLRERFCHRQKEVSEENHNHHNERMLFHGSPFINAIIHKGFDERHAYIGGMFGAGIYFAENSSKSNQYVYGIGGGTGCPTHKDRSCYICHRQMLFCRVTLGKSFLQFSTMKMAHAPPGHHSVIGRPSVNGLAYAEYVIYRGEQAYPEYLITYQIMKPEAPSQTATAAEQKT

[2] = target: T2, catalytic domain of human PARP10 (Homo sapiens, UniProt Q53GL7); test: as above; settings: […] analogue, […] MgCl2, pH […]
T2 construct: catalytic domain residues 809-1017, N-terminal His6, E. coli BL21 (DE3)
T2 sequence (Q53GL7 809-1017): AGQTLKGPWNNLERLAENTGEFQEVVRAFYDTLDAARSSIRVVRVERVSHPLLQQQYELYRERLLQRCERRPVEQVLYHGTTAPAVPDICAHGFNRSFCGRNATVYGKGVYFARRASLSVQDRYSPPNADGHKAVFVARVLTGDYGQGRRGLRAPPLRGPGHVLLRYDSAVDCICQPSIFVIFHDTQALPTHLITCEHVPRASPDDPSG

human NRK1 = target: T3, human NRK1 (Homo sapiens, UniProt Q9NWW6); test: HPLC conversion; settings: […] NR6, […] ATP, […] MgCl2, pH […], room temperature
T3 construct: gene NMRK1; full length, C-terminal His6, pET-28a, E. coli BL21 (DE3)
T3 sequence (Q9NWW6 1-199): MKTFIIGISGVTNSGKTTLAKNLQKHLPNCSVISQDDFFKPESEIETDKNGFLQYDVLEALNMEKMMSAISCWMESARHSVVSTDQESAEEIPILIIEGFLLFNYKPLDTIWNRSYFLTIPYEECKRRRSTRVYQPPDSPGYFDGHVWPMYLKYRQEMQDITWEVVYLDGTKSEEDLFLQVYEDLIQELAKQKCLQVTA

Row | Structure (SMILES) | automodification, click biotin labelling, streptavidin-HRP immunoblot [1] | automodification, click biotin labelling, streptavidin-HRP immunoblot [2] | HPLC conversion (human NRK1)
1 | C#Cc1nc(N)c2ncn([C@@H]3O[C@H](COP(=O)(O)OP(=O)([O-])OC[C@H]4O[C@@H]([n+]5cccc(C(N)=O)c5)[C@H](O)[C@@H]4O)[C@@H](O)[C@H]3O)c2n1 [2-a-NAD^+, 2-alkyne-NAD^+] | 6-a-NAD^+ and 2-a-NAD^+ that displayed strong automodification activities for both enzymes | 6-a-NAD^+ and 2-a-NAD^+ that displayed strong automodification activities for both enzymes | 
2 | C#CCNc1ncnc2c1ncn2[C@@H]1O[C@H](COP(=O)(O)OP(=O)([O-])OC[C@H]2O[C@@H]([n+]3cccc(C(N)=O)c3)[C@H](O)[C@@H]2O)[C@@H](O)[C@H]1O [6-a-NAD^+, 6-alkyne-NAD^+] | 6-a-NAD^+ and 2-a-NAD^+ that displayed strong automodification activities for both enzymes | 6-a-NAD^+ and 2-a-NAD^+ that displayed strong automodification activities for both enzymes | 
3 | [N-]=[N+]=N[C@H]1[C@@H](O)[C@H]([n+]2cccc(C(N)=O)c2)O[C@@H]1CO [NR6] |  |  | NRK1 that could only catalyze conversion of NR5 and NR6
